According to ChEMBL document CHEMBL2157944, “Evaluation of structure-derived pharmacophore of soluble epoxide hydrolase inhibitors by virtual screening” (Bioorg Med Chem Lett, 2012):

Columns and labels:
[1] = target: T1, Bifunctional epoxide hydrolase 2 (Homo sapiens, UniProt P34913); experiment: Inhibition of sEH using (3-Phenyl-oxiranyl)-acetic acid cyano-(6-methoxy-naphthalen-2-yl)-methyl ester) as substrate incubated for 15 mins prior to substrate addition measured every min for 15 mins by fluorimetric analysis
T1 sequence (P34913 whole entry): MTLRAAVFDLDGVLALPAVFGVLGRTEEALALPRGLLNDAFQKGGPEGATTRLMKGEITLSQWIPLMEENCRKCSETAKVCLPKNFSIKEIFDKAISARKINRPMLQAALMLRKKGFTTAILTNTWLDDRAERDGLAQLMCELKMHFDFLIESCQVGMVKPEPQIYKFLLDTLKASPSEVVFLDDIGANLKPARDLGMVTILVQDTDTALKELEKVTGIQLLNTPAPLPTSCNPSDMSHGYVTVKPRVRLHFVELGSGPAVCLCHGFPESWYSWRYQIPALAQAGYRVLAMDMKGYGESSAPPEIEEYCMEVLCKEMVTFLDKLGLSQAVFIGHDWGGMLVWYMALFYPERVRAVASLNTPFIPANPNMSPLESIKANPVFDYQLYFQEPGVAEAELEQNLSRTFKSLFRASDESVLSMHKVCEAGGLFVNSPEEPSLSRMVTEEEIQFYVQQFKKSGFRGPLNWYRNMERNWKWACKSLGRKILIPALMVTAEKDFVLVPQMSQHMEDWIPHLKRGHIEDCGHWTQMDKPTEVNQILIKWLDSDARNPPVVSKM

[2] = Solubility of the compound; assay type: physicochemical
[3] = Solubility of the compound at >100 uM; assay type: physicochemical

Structure (SMILES)	IC50 [1] [µM]	further results
O=C(Nc1cccc(Cl)c1)OCCCNS(=O)(=O)c1cccc([N+](=O)[O-])c1	3.2	–
O=C(Nc1cccc(O)c1)OCC1c2ccccc2-c2ccccc21	5.5	–
NS(=O)(=O)c1ccc(CNc2ncc(-c3ccncc3)c(C3CC3)n2)cc1	–	solubility [2]: Insoluble
Cc1cc(-c2cnc(NCCCc3ccccn3)nc2C(C)C)on1	–	solubility [3]: Insoluble
O=C(NCCCNc1ncc(-c2ccncc2)c(C2CC2)n1)c1ccccn1	25	–
